Measured values published in patent US20060121449A1, “Method for selection of compounds which inhibit clonal cell growth and use thereof” (priority 2002, published 2006).
“Also recorded” adds a separate entry of the source.

Columns and labels:
[1] = test system: polyoma virus transformed BHK21/c13 cells, clone S100T1; test: Clonal test: clonal growth of S100T1 cells in soft agar (Exp 2, 4, 6, 15, 16); format: cell-based, hamster
[2] = test system: polyoma virus transformed BHK21/c13 cells, line S100T1; test: Collocation inhibition test: clonal growth in sparsely and densely seeded areas of a cell density gradient of S100T1 cells in soft agar (Exp 13, 17, 19-26); details: for Significance: Exp 17 day 14;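 for Clonal growth, H high density area of cell gradient, High: grades rise with clonal growth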;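 for Clonal growth, H high density area of cell gradient, Low: grades rise with clonal growth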;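 for Clonal growth, H high density area of cell gradient, Medium: grades rise with clonal growth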;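 for Clonal growth, L low density area of cell gradient, High: grades rise with clonal growth and minus or plus-minus means none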;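 for Clonal growth, L low density area of cell gradient, Low: grades rise with clonal growth and minus or plus-minus means none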;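 for Clonal growth, L low density area of cell gradient, Medium: grades rise with clonal growth and minus or plus-minus means none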;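 for all read-outs here: soft agar cultures in 24-well plates with a cell density gradient in the top layer, compounds applied from DMSO stocks, clonal growth scored in sparse versus dense areas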
[3] = Exp 15, 32000 S100T1 cells/well
[4] = preliminary results, Exp 13-18, 21-26, high concentration
[5] = preliminary results, Exp 13-18, 21-26, low concentration
[6] = preliminary results, Exp 13-18, 21-26, medium concentration

COc1cc([C@@H]2c3cc4c(cc3[C@H](O)[C@H]3COC(=O)[C@H]23)OCO4)cc(OC)c1OC [Podophyllotoxin]
Effect on clonal growth at 0.03 μM [1, 3]: no significant inhibition | Effect on clonal growth at 0.3 μM [1, 3]: inhibited significantly | Concentration inhibiting clones significantly ([1]; Exp 16): More than 0.065 μM Podophyllotoxin inhibited clones | Colony inhibiting activity for dosage within a range that might be therapeutic ([1]; Exp 16, about 40000 S100T1 cells/well): the same activity possibly existed | Significance ([1]; Exp 16 day 14, Podophyllotoxin No 5 (lot 12K1562, solved in DMSO 8 days beforehand, stored frozen), 0.3 μM): probable | Growth ([1]; Exp 16 day 14, Podophyllotoxin No 5 (lot 12K1562, solved in DMSO 8 days beforehand, stored frozen), 0.3 μM in wells): (+)) | Growth ([1]; Exp 16 day 14, Podophyllotoxin No 5 (lot 12K1562, solved in DMSO 8 days beforehand, stored frozen), 3 μM in wells): (+)) | Significance ([1]; Exp 16 day 14, Podophyllotoxin No 5 (lot 12K1562, solved in DMSO 8 days beforehand, stored frozen), 3 μM, ” = as line above): ” and probable and prob- | Significance ([1]; Exp 16 day 14, Podophyllotoxin No 6 (lot 12K1562, solved in DMSO the same day), 0.03 μM): no | Significance ([1]; Exp 16 day 14, Podophyllotoxin No 6 (lot 12K1562, solved in DMSO the same day), 0.065 μM): possible | Growth ([1]; Exp 16 day 14, Podophyllotoxin No 6 (lot 12K1562, solved in DMSO the same day), 0.065 μM in wells): (+) | Significance ([1]; Exp 16 day 14, Podophyllotoxin No 7 (lot 12K1562, solved in DMSO the same day), 0.139 μM): probable | Growth ([1]; Exp 16 day 14, Podophyllotoxin No 7 (lot 12K1562, solved in DMSO the same day), 0.139 μM in wells): (+)) | Growth ([1]; Exp 16 day 14, Podophyllotoxin No 7 (lot 12K1562, solved in DMSO the same day), 0.3 μM in wells): (+) | Significance ([1]; Exp 16 day 14, Podophyllotoxin No 7 (lot 12K1562, solved in DMSO the same day), 0.3 μM, ” = as line above): ” and possible | Significance ([1]; Exp 16 day 21, Podophyllotoxin No 5 (lot 12K1562, solved in DMSO 8 days beforehand, stored frozen), 0.3 μM): doubtful | Growth ([1]; Exp 16 day 21, Podophyllotoxin No 5 (lot 12K1562, solved in DMSO 8 days beforehand, stored frozen), 0.3 μM in wells): (+ | Significance ([1]; Exp 16 day 21, Podophyllotoxin No 5 (lot 12K1562, solved in DMSO 8 days beforehand, stored frozen), 3 μM): probable | Growth ([1]; Exp 16 day 21, Podophyllotoxin No 5 (lot 12K1562, solved in DMSO 8 days beforehand, stored frozen), 3 μM in wells): (+)) | Significance ([1]; Exp 16 day 21, Podophyllotoxin No 6 (lot 12K1562, solved in DMSO the same day), 0.03 μM): no | Growth ([1]; Exp 16 day 21, Podophyllotoxin No 6 (lot 12K1562, solved in DMSO the same day), 0.03 μM in wells): ++ | Significance ([1]; Exp 16 day 21, Podophyllotoxin No 6 (lot 12K1562, solved in DMSO the same day), 0.065 μM): doubtful | Growth ([1]; Exp 16 day 21, Podophyllotoxin No 6 (lot 12K1562, solved in DMSO the same day), 0.065 μM in wells): (+ | Significance ([1]; Exp 16 day 21, Podophyllotoxin No 7 (lot 12K1562, solved in DMSO the same day), 0.139 μM): doubtful | Growth ([1]; Exp 16 day 21, Podophyllotoxin No 7 (lot 12K1562, solved in DMSO the same day), 0.139 μM in wells): (+ | Significance ([1]; Exp 16 day 21, Podophyllotoxin No 7 (lot 12K1562, solved in DMSO the same day), 0.3 μM): possible | Growth ([1]; Exp 16 day 21, Podophyllotoxin No 7 (lot 12K1562, solved in DMSO the same day), 0.3 μM in wells): (+) | Effect on growth in high- and low-density areas ([2]; Exp 17, 144000 S100T1 cells/well): growth inhibition of both high and low-density areas; also recorded: significant inhibition of growth in crowded areas | Clonal growth, results read on the day 14 ([2]; Exp 17, a: close to densely seeded cell areas, High: Colchicine 1, Podophyllotoxin 3, Etoposide 200, 4-OH—OPB 6.7 μM in wells, DMSO 29.2 μl): (+) | Clonal growth, results read on the day 14 ([2]; Exp 17, a: close to densely seeded cell areas, Low: Colchicine 0.1, Podophyllotoxin 0.3, Etoposide 20, 4-OH—OPB 0.67 μM in wells, DMSO 1.16 μl): (+ | Clonal growth, results read on the day 14 ([2]; Exp 17, a: close to densely seeded cell areas, Medium: Colchicine 0.3, Podophyllotoxin 0.9, Etoposide 60, 4-OH—OPB 2 μM in wells, DMSO 6.8 μl): (+ | Clonal growth, results read on the day 14 ([2]; Exp 17, b: sparsely seeded areas in the same agar culture, High: Colchicine 1, Podophyllotoxin 3, Etoposide 200, 4-OH—OPB 6.7 μM in wells, DMSO 29.2 μl): (+) | Clonal growth, results read on the day 14 ([2]; Exp 17, b: sparsely seeded areas in the same agar culture, Low: Colchicine 0.1, Podophyllotoxin 0.3, Etoposide 20, 4-OH—OPB 0.67 μM in wells, DMSO 1.16 μl): + | Clonal growth, results read on the day 14 ([2]; Exp 17, b: sparsely seeded areas in the same agar culture, Medium: Colchicine 0.3, Podophyllotoxin 0.9, Etoposide 60, 4-OH—OPB 2 μM in wells, DMSO 6.8 μl): + | Clones in sparsely seeded locations of the agar ([2]; Exp 17, compared with 4-OH-OPB): allow the growth of a few small clones in sparsely seeded locations of the agar; also recorded: to allow the growth of a few small clones in sparsely | Significance ([2]; a: close to densely seeded cell areas, High: Colchicine 1, Podophyllotoxin 3, Etoposide 200, 4-OH—OPB 6.7 μM in wells, DMSO 29.2 μl): Possible | Significance ([2]; a: close to densely seeded cell areas, Low: Colchicine 0.1, Podophyllotoxin 0.3, Etoposide 20, 4-OH—OPB 0.67 μM in wells, DMSO 1.16 μl): Doubtful | Significance ([2]; a: close to densely seeded cell areas, Medium: Colchicine 0.3, Podophyllotoxin 0.9, Etoposide 60, 4-OH—OPB 2 μM in wells, DMSO 6.8 μl): Doubtful | Significance ([2]; b: sparsely seeded areas, High: Colchicine 1, Podophyllotoxin 3, Etoposide 200, 4-OH—OPB 6.7 μM in wells, DMSO 29.2 μl): Possible | Significance ([2]; b: sparsely seeded areas, Low: Colchicine 0.1, Podophyllotoxin 0.3, Etoposide 20, 4-OH—OPB 0.67 μM in wells, DMSO 1.16 μl): No | Significance ([2]; b: sparsely seeded areas, Medium: Colchicine 0.3, Podophyllotoxin 0.9, Etoposide 60, 4-OH—OPB 2 μM in wells, DMSO 6.8 μl): No | Control of metastatic cells leaving tumour ([2]; ability of cells to leave a tumour, grow and infiltrate locally or grow in sparsely seeded areas, concluded from Exp 17): probably not | Clonal growth, H high density area of cell gradient, High [2, 4]: (+) | Clonal growth, L low density area of cell gradient, High [2, 4]: (+) | Clonal growth, H high density area of cell gradient, Low [2, 5]: (+ | Clonal growth, L low density area of cell gradient, Low [2, 5]: + | Clonal growth, H high density area of cell gradient, Medium [2, 6]: (+ | Clonal growth, L low density area of cell gradient, Medium [2, 6]: + | Effect on cell cloning in soft agar ([2]; preliminary results, in words): cytotoxic | Control of settlement of metastatic cells ([2]; single cells or very few cells spread to distant sites, concluded from Exp 17): partly | Toxicity for body or dense cell populations ([2]; supposed main advantages or disadvantages if used in cancer treatment, concluded from Exp 17): yes | Tolerating long duration of treatment ([2]; supposed, if used in cancer treatment): no
